According to the NIST ThermoML archive (doi:10.1016/j.jct.2019.105891):
± gives the expanded uncertainty stated by the source.

What was measured:
[1] = 100 kPa, Liquid, Falling or rolling sphere viscometry
[2] = refractive index (Na D-line) (dimensionless); settings: 100 kPa, Liquid, Standard Abbe refractometry
[3] = xn = mol fraction of the nth substance listed; settings: 100 kPa, Liquid, Falling or rolling sphere viscometry
[4] = refractive index (Na D-line) (dimensionless); xn = mol fraction of the nth substance listed; settings: 100 kPa, Liquid, Standard Abbe refractometry

CCCCn1cc[n+](C)c1.F[B-](F)(F)F [1-butyl-3-methylimidazolium tetrafluoroborate]
Settings | refractive index, 293.15 K | refractive index, 303.15 K | refractive index, 313.15 K | refractive index, 323.15 K | viscosity, 293.15 K [mPa·s] | viscosity, 303.15 K [mPa·s] | viscosity, 313.15 K [mPa·s] | viscosity, 323.15 K [mPa·s]
[1] | – | – | – | – | 135.7 ± 9.2 | 80.4 ± 5 | 51.4 ± 3.1 | 34.92 ± 2.1
[2] | 1.42144 ± 0.0011 | 1.41913 ± 0.0011 | 1.41621 ± 0.0011 | 1.4133 ± 0.0011 | – | – | – | –

CCCCn1cc[n+](C)c1.F[B-](F)(F)F [1-butyl-3-methylimidazolium tetrafluoroborate] + Nc1ccccc1
x1 = 1
Settings | refractive index, 293.15 K | refractive index, 303.15 K | refractive index, 313.15 K | refractive index, 323.15 K | viscosity, 293.15 K [mPa·s] | viscosity, 303.15 K [mPa·s] | viscosity, 313.15 K [mPa·s] | viscosity, 323.15 K [mPa·s]
[3] | – | – | – | – | 135.7 ± 9.2 | 80.4 ± 5 | 51.4 ± 3.1 | 34.92 ± 2.1
[4] | 1.42144 ± 0.0011 | 1.41913 ± 0.0011 | 1.41621 ± 0.0011 | 1.4133 ± 0.0011 | – | – | – | –

CCn1cc[n+](C)c1.F[B-](F)(F)F [1-ethyl-3-methylimidazolium tetrafluoroborate]
Settings | refractive index, 293.15 K | refractive index, 303.15 K | refractive index, 313.15 K | refractive index, 323.15 K | viscosity, 293.15 K [mPa·s] | viscosity, 303.15 K [mPa·s] | viscosity, 313.15 K [mPa·s] | viscosity, 323.15 K [mPa·s]
[1] | – | – | – | – | 45.69 ± 2.8 | 30.54 ± 1.9 | 21.82 ± 1.3 | 16.42 ± 1
[2] | 1.41509 ± 0.0011 | 1.41117 ± 0.0011 | 1.40802 ± 0.0011 | 1.40512 ± 0.0011 | – | – | – | –

CCn1cc[n+](C)c1.F[B-](F)(F)F [1-ethyl-3-methylimidazolium tetrafluoroborate] + Nc1ccccc1
x1 = 1
Settings | refractive index, 293.15 K | refractive index, 303.15 K | refractive index, 313.15 K | refractive index, 323.15 K | viscosity, 293.15 K [mPa·s] | viscosity, 303.15 K [mPa·s] | viscosity, 313.15 K [mPa·s] | viscosity, 323.15 K [mPa·s]
[3] | – | – | – | – | 45.69 ± 2.8 | 30.54 ± 1.9 | 21.82 ± 1.3 | 16.42 ± 1
[4] | 1.41509 ± 0.0011 | 1.41117 ± 0.0011 | 1.40802 ± 0.0011 | 1.40512 ± 0.0011 | – | – | – | –

Nc1ccccc1 [aniline]
Settings | refractive index, 293.15 K | refractive index, 303.15 K | refractive index, 313.15 K | refractive index, 323.15 K | viscosity, 293.15 K [mPa·s] | viscosity, 303.15 K [mPa·s] | viscosity, 313.15 K [mPa·s] | viscosity, 323.15 K [mPa·s]
[1] | – | – | – | – | 4.38 ± 0.26 | 3.24 ± 0.2 | 2.47 ± 0.15 | 1.95 ± 0.12
[2] | 1.58481 ± 0.001 | 1.58152 ± 0.001 | 1.57823 ± 0.001 | 1.57494 ± 0.001 | – | – | – | –

Nc1ccccc1 [aniline] + CCCCn1cc[n+](C)c1.F[B-](F)(F)F
Settings | refractive index, [4] | viscosity, [3] [mPa·s]
293.15 K, x2 = 0 | 1.58481 ± 0.001 | 4.38 ± 0.26
293.15 K, x2 = 0.1001 | 1.55273 ± 0.0024 | 7.66 ± 0.82
293.15 K, x2 = 0.4991 | 1.47256 ± 0.0022 | 36.82 ± 2.4
293.15 K, x2 = 0.6032 | 1.45814 ± 0.0017 | 50.14 ± 3.3
293.15 K, x2 = 0.7021 | 1.44443 ± 0.0016 | 65.33 ± 4.3
293.15 K, x2 = 0.7907 | 1.43496 ± 0.0014 | 81.22 ± 5.4
293.15 K, x2 = 0.9026 | 1.42669 ± 0.0012 | 104.99 ± 7.2
303.15 K, x2 = 0 | 1.58152 ± 0.001 | 3.24 ± 0.2
303.15 K, x2 = 0.1001 | 1.54951 ± 0.0024 | 5.46 ± 0.51
303.15 K, x2 = 0.4991 | 1.46852 ± 0.0022 | 22.05 ± 1.4
303.15 K, x2 = 0.6032 | 1.4544 ± 0.0017 | 31.1 ± 2.1
303.15 K, x2 = 0.7021 | 1.44151 ± 0.0016 | 40.82 ± 2.7
303.15 K, x2 = 0.7907 | 1.43264 ± 0.0014 | 50.78 ± 3.3
303.15 K, x2 = 0.9026 | 1.42433 ± 0.0012 | 66.19 ± 4.3
313.15 K, x2 = 0 | 1.57823 ± 0.001 | 2.47 ± 0.15
313.15 K, x2 = 0.1001 | 1.54532 ± 0.0024 | 4.04 ± 0.35
313.15 K, x2 = 0.4991 | 1.46448 ± 0.0022 | 14.67 ± 0.94
313.15 K, x2 = 0.6032 | 1.45067 ± 0.0016 | 20.79 ± 1.4
313.15 K, x2 = 0.7021 | 1.43859 ± 0.0015 | 26.92 ± 1.8
313.15 K, x2 = 0.7907 | 1.43031 ± 0.0013 | 33.47 ± 2.2
313.15 K, x2 = 0.9026 | 1.42197 ± 0.0013 | 42.66 ± 2.7
323.15 K, x2 = 0 | 1.57494 ± 0.001 | 1.95 ± 0.12
323.15 K, x2 = 0.1001 | 1.54114 ± 0.0031 | 3.08 ± 0.23
323.15 K, x2 = 0.2028 | 1.51499 ± 0.0022 | 4.56 ± 0.33
323.15 K, x2 = 0.4991 | 1.46044 ± 0.002 | 10.52 ± 0.68
323.15 K, x2 = 0.6032 | 1.44694 ± 0.0016 | 14.73 ± 0.98
323.15 K, x2 = 0.7021 | 1.43567 ± 0.0015 | 18.58 ± 1.2
323.15 K, x2 = 0.7907 | 1.42799 ± 0.0013 | 23.06 ± 1.5
323.15 K, x2 = 0.9026 | 1.41961 ± 0.0013 | 29.65 ± 1.9
